Assay results published in patent publication US20260241013A1, “TARGETED PROTEIN DEGRADATION USING PRODRUGS OF BIFUNCTIONAL COMPOUNDS THAT BIND UBIQUITIN LIGASE AND A TARGET MCL-1 PROTEIN” (Captor Therapeutics S.A., priority 2022, published 2026).
Where two headings read alike, the source gives them in different places.

What was measured:
Type in all cases: cell-based
[1] = test system: MV4-11 cells; experiment: Cell viability assay (CellTiter-Glo, CTG protocol), MV4-11; conditions: Homo sapiens, MV4-11 (MCL-1 dependent AML line), 24 hours incubation, 1% FBS, read-out: Average pCC50 by molecule MV4-11 (converted)
Source text: (§1) The effect of various compounds of the invention on the viability of MV4-11 and ARH-77 cell lines was investigated, using the CTG protocol described below.
(§2) MV4-11 cell lines are derived from acute myeloid leukaemia and it is described in the literature as a MCL-1 dependent cell line, as opposed to lymphoblast-like ARH-77 cell line, which is described as independent of MCL-1 (Tron A E et al. Nat Commun. 2018; 9: 5341; Caenepeel S et al. Cancer Discov. 2018 December; 8(12): 1582-1597).
(§3) Cells (MV4-11 or ARH-77) were seeded on […] in a growth medium with 1% FBS. Next, compound stocks were pre-diluted in DMSO and added directly to the cell culture media (final DMSO concentration: 0.5%). Compound concentrations used in this assay: 1/3 dilutions starting at 30 μM (9 to 12 points). After 24 hours of incubation, cell viability was evaluated using CellTiter-Gob® Luminescent Cell Viability Assay (Promega, cat #G7572). The luminescence signal was measured using a CLARIOstar Plus Multi-Mode Microplate Reader (574-590 nm).
(§4) Results were normalized to DMSO control. Collected data were analyzed using GraphPad Prism to calculate pCC50 values (i.e. the negative log of the CC50 value). CC50 (50% cytotoxic concentration) is the effective concentration of a cytotoxic compound, which produces 50% of the maximum possible cell death (i.e. the concentration of the compound which is required in order to reduce cell viability by 50%). CC50 is often used rather than IC50 in cell toxicity assays.

[2] = Cell viability assay (CellTiter-Glo, CTG protocol), ARH-77; conditions: human, ARH-77 cells (lymphoblast-like), ARH-77 (MCL-1 independent line), 24 hours incubation, 1% FBS, read-out: Average pCC50 by molecule ARH-77 (converted)
Source text: as §1, §2, §3, §4

[3] = molecular target: T1, CRBN (Homo sapiens, UniProt Q96SW2); experiment: NanoBRET In-cell CRBN Target Engagement Assay (live and lytic mode), NanoLuc CRBN HEK293 cells
T1 construct: host or cells: HEK293 (NanoLuc CRBN HEK293 cells)
T1 sequence (Q96SW2 whole entry): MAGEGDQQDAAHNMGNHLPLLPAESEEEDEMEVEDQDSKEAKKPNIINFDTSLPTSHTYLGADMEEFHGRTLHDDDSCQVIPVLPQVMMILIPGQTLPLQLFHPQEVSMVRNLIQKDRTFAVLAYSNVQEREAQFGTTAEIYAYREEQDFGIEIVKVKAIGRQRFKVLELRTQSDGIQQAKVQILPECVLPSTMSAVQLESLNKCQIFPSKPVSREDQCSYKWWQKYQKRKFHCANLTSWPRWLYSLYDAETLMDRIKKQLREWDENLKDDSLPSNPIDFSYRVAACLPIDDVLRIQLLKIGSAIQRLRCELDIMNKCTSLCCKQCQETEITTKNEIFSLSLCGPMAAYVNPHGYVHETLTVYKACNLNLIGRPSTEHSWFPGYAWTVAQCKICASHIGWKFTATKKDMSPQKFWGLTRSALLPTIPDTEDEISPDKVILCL
Protocol: Commercially available, NanoBRET In-cell CRBN Target Engagement Assay (NanoBRET CRBN TE Assay), which uses NanoLuc CRBN HEK293 cells and NanoBRET In-cell CRBN Tracer was used (N2910, N2912, PROMEGA) to determine the cell membrane permeability of prodrugs of MCL-1 degraders.
The assay was run in 96-well plate format (cat. 3600, Corning). NanoLuc CRBN HEK293 cells were treated with CRBN Tracer and compounds. Briefly, prepared was cell suspension (0.17×10^6cells/ml) in Opti-MEM without phenol red (Life Technologies). The cells were treated with CRBN Tracer (20× concentrated, 5 μl/well. For the live mode: 0.8 μM and for the lytic: 0.17 μM final concentration) or DMSO vehicle control (20× concentrated, 5 μl/well). Such prepared cells were seeded into the wells of 96-well plate on top of compounds (100× concentrated, 1 μl/well; 11-point 2-fold dilution) pre-plated on them with the help of Echo 555 acoustic dispenser (Labcyte). For the lytic mode assay, Digitonin (0.05 mg/ml, 10× concentrated, 10 μl/well) was added additionally. In the live mode assay, the plate was incubated at 37° C., 5% CO2 for 2 hours, and then at room temperature for 15 minutes to cool down. In the lytic mode assay, there was no incubation. The 3×Complete NanoBRET reagent (50 μl/well) was prepared according to the manufacturer's recommendations, appropriately for live and lytic mode. The plate was incubated for 2 minutes at room temperature and the luminescence and fluorescence readings followed using CLARIOstar Multimode Plate Reader (donor emission RLU—450 nm; acceptor emission RFU—610 nm). RBA value is an indicator of cell membrane permeability (the lower, the better) is calculated from absolute pIC50 (the negative log of the absolute IC50 value when converted to molar) of the live mode assay (pIC50 Live) and the lytic mode assay (pIC50 Lytic).

[4] = live mode, intact cells, 2 hours at 37° C., read-out: pIC50 (live) (converted)
[5] = lytic mode, digitonin-lysed cells, no incubation, read-out: pIC50 (lytic) (converted)

## Cc1nn(C)c(C)c1-c1c(Cl)ccc2c(CCCOc3cccc4cc(F)ccc34)c(C(=O)OCOC(=O)C(C)(C)C)n(CCN3CCN(C(=O)COc4cccc5c4n(C)c(=O)n5C4CCC(=O)NC4=O)CC3)c12 (stereo not drawn) [Compound 73, (Pivaloyloxy)methyl 6-chloro-1-(2-(4-(2-((1-(2,6-dioxopiperidin-3-yl)-3-methyl-2-oxo-2,3-dihydro-1H-benzo[d]imidazol-4-yl)oxy)acetyl)piperazin-1-yl)ethyl)-3-(3-((6-fluoronaphthalen-1-yl)oxy)propyl)-7-(1,3,5-trimethyl-1H-pyrazol-4-yl)-1H-indole-2-carboxylate]
[1]
  CC50: < 3.16 nM
[2]
  CC50 at 24 h: > 1 µM
[3]; [4]
  IC50: 6.31 nM
[3]; [5]
  IC50: 398 nM

## Cc1nn(C)c(C)c1-c1c(Cl)ccc2c(CCCOc3cccc4cc(F)ccc34)c(C(=O)OCOC(=O)CCO)n(CCN3CCN(C(=O)COc4cccc5c4CN(C4CCC(=O)NC4=O)C5=O)CC3)c12 (stereo not drawn) [Compound 43]
[1]
  CC50: < 3.16 nM
[2]
  CC50 at 24 h: > 3.16 µM
[3]; [4]
  IC50: 39.8 nM
[3]; [5]
  IC50: 79.4 nM

## CC(=O)OC(C)OC(=O)c1c(CCCOc2cccc3cc(F)ccc23)c2ccc(Cl)c(-c3c(C)nn(C)c3C)c2n1CCN1CCN(C(=O)COc2cccc3c2CN(C2CCC(=O)NC2=O)C3=O)CC1 (stereo not drawn) [Compound 75, 1-Acetoxyethyl 6-chloro-1-(2-(4-(2-((2-(2,6-dioxopiperidin-3-yl)-1-oxoisoindolin-4-yl)oxy)acetyl)piperazin-1-yl)ethyl)-3-(3-((6-fluoronaphthalen-1-yl)oxy)propyl)-7-(1,3,5-trimethyl-1H-pyrazol-4-yl)-1H-indole-2-carboxylate]
[1]
  CC50: < 10 nM
[2]
  CC50 at 24 h: > 31.6 µM

## Cc1nn(C)c(C)c1-c1c(Cl)ccc2c(CCCOc3cccc4cc(F)ccc34)c(C(=O)OCOC(=O)C(C)(C)C)n(CCN3CCC(CN4CCN(c5ccc6c(c5)CN([C@H]5CCC(=O)NC5=O)C6=O)CC4)CC3)c12 [Compound 71, (Pivaloyloxy)methyl (S)-6-chloro-1-(2-(4-((4-(2-(2,6-dioxopiperidin-3-yl)-1-oxoisoindolin-5-yl)piperazin-1-yl)methyl)piperidin-1-yl)ethyl)-3-(3-((6-fluoronaphthalen-1-yl)oxy)propyl)-7-(1,3,5-trimethyl-1H-pyrazol-4-yl)-1H-indole-2-carboxylate]
[1]
  CC50: < 100 nM
[2]
  CC50 at 24 h: > 10 µM

## Cc1nn(C)c(C)c1-c1c(Cl)ccc2c(CCCOc3cccc4cc(F)ccc34)c(C(=O)OCCS(C)(=O)=O)n(CCN3CCN(C(=O)COc4cccc5c4CN(C4CCC(=O)NC4=O)C5=O)CC3)c12 (stereo not drawn) [Compound 124, 2-(Methylsulfonyl)ethyl 6-chloro-1-(2-(4-(2-((2-(2,6-dioxopiperidin-3-yl)-1-oxoisoindolin-4-yl)oxy)acetyl)piperazin-1-yl)ethyl)-3-(3-((6-fluoronaphthalen-1-yl)oxy)propyl)-7-(1,3,5-trimethyl-1H-pyrazol-4-yl)-1H-indole-2-carboxylate]
[1]
  CC50: < 1000 nM
[2]
  CC50 at 24 h: > 31.6 µM

## Cc1nn(C)c(C)c1-c1c(Cl)ccc2c(CCCOc3cccc4cc(F)ccc34)c(C(=O)OCOC(=O)C(C)(C)C)n(CCN3CCN(C(=O)Cn4c(C)nc5c(C(=O)NC6CCC(=O)NC6=O)cccc54)CC3)c12 (stereo not drawn) [Compound 70, (6-Chloro-1-{2-[4-(2-{4-[(2,6-dioxopiperidin-3-yl)carbamoyl]-2-methyl-1H-1,3-benzodiazol-1-yl}acetyl)piperazin-1-yl]ethyl}-3-{3-[(6-fluoronaphthalen-1-yl)oxy]propyl}-7-(1,3,5-trimethyl-1H-pyrazol-4-yl)-1H-indole-2-carbonyloxy)methyl 2,2-dimethylpropanoate]
[1]
  CC50: < 10 nM
[2]
  CC50 at 24 h: > 31.6 µM
[3]; [4]
  IC50: 25.1 nM
[3]; [5]
  IC50: 7940 nM

## COCCOCC(=O)OCOC(=O)c1c(CCCOc2cccc3cc(F)ccc23)c2ccc(Cl)c(-c3c(C)nn(C)c3C)c2n1CCN1CCN(C(=O)COc2cccc3c2CN(C2CCC(=O)NC2=O)C3=O)CC1 (stereo not drawn) [Compound 57, (2-(2-Methoxyethoxy)acetoxy)methyl 6-chloro-1-(2-(4-(2-((2-(2,6-dioxopiperidin-3-yl)-1-oxoisoindolin-4-yl)oxy)acetyl)piperazin-1-yl)ethyl)-3-(3-((6-fluoronaphthalen-1-yl)oxy)propyl)-7-(1,3,5-trimethyl-1H-pyrazol-4-yl)-1H-indole-2-carboxylate]
[1]
  CC50: < 10 nM
[2]
  CC50 at 24 h: > 10 µM

## Cc1nn(C)c(C)c1-c1c(Cl)ccc2c(CCCOc3cccc4cc(F)ccc34)c(C(=O)OCOC(=O)C3CCNCC3)n(CCN3CCN(C(=O)COc4cccc5c4CN(C4CCC(=O)NC4=O)C5=O)CC3)c12 (stereo not drawn) [Compound 55, ((Piperidine-4-carbonyl)oxy)methyl 6-chloro-1-(2-(4-(2-((2-(2,6-dioxopiperidin-3-yl)-1-oxoisoindolin-4-yl)oxy)acetyl)piperazin-1-yl)ethyl)-3-(3-((6-fluoronaphthalen-1-yl)oxy)propyl)-7-(1,3,5-trimethyl-1H-pyrazol-4-yl)-1H-indole-2-carboxylate]
[1]
  CC50: < 100 nM
[2]
  CC50 at 24 h: > 10 µM

## Cc1nn(C)c(C)c1-c1c(Cl)ccc2c(CCCOc3cccc4cc(F)ccc34)c(C(=O)OC(C)OC(=O)OC(C)C)n(CCN3CCN(C(=O)COc4cccc5c4CN(C4CCC(=O)NC4=O)C5=O)CC3)c12 (stereo not drawn) [Compound 99, 1-{[(Propan-2-yloxy)carbonyl]oxy}ethyl 6-chloro-1-{2-[4-(2-{[2-(2,6-dioxopiperidin-3-yl)-1-oxo-2,3-dihydro-1H-isoindol-4-yl]oxy}acetyl)piperazin-1-yl]ethyl}-3-{3-[(6-fluoronaphthalen-1-yl)oxy]propyl}-7-(1,3,5-trimethyl-1H-pyrazol-4-yl)-1H-indole-2-carboxylate]
[1]
  CC50: < 31.6 nM
[2]
  CC50 at 24 h: > 31.6 µM

## Cc1nn(C)c(C)c1-c1c(Cl)ccc2c(CCCOc3cccc4cc(F)ccc34)c(C(=O)OCCN3CCOCC3)n(CCN3CCN(C(=O)COc4cccc5c4CN(C4CCC(=O)NC4=O)C5=O)CC3)c12 (stereo not drawn) [Compound 129, 2-Morpholinoethyl 6-chloro-1-(2-(4-(2-((2-(2,6-dioxopiperidin-3-yl)-1-oxoisoindolin-4-yl)oxy)acetyl)piperazin-1-yl)ethyl)-3-(3-((6-fluoronaphthalen-1-yl)oxy)propyl)-7-(1,3,5-trimethyl-1H-pyrazol-4-yl)-1H-indole-2-carboxylate]
[3]; [4]
  IC50: 316 nM
[3]; [5]
  IC50: 355 nM

## Cc1nn(C)c(C)c1-c1c(Cl)ccc2c(CCCOc3cccc4cc(F)ccc34)c(C(=O)OCCN3CCN(C)CC3)n(CCN3CCN(C(=O)COc4cccc5c4CN(C4CCC(=O)NC4=O)C5=O)CC3)c12 (stereo not drawn) [Compound 133, 2-(4-Methylpiperazin-1-yl)ethyl 6-chloro-1-(2-(4-(2-((2-(2,6-dioxopiperidin-3-yl)-1-oxoisoindolin-4-yl)oxy)acetyl)piperazin-1-yl)ethyl)-3-(3-((6-fluoronaphthalen-1-yl)oxy)propyl)-7-(1,3,5-trimethyl-1H-pyrazol-4-yl)-1H-indole-2-carboxylate]
[3]; [4]
  IC50: 398 nM
[3]; [5]
  IC50: 251 nM

## Cc1nn(C)c(C)c1-c1c(Cl)ccc2c(CCCOc3cccc4cc(F)ccc34)c(C(=O)OC(C)OC(=O)OC3CCCCC3)n(CCN3CCN(C(=O)COc4cccc5c4CN(C4CCC(=O)NC4=O)C5=O)CC3)c12 (stereo not drawn) [Compound 100, 1-(((Cyclohexyloxy)carbonyl)oxy)ethyl 6-chloro-1-(2-(4-(2-((2-(2,6-dioxopiperidin-3-yl)-1-oxoisoindolin-4-yl)oxy)acetyl)piperazin-1-yl)ethyl)-3-(3-((6-fluoronaphthalen-1-yl)oxy)propyl)-7-(1,3,5-trimethyl-1H-pyrazol-4-yl)-1H-indole-2-carboxylate]
[1]
  CC50: < 31.6 nM
[2]
  CC50 at 24 h: > 31.6 µM
